Assay results reported in article PMC4920673, “Nitroimidazole carboxamides as antiparasitic agents targeting Giardia lamblia, Entamoeba histolytica and Trichomonas vaginalis” (European Journal of Medicinal Chemistry, 2016).
≈ marks a conversion by molar mass, not a printed value. Like-named read-outs stand apart in the source and are kept apart here.

Tests used:
E. histolytica HM1:IMSS = assay: ATP-bioluminescence growth/survival EC50 assay, E. histolytica; type: cell-based, Entamoeba histolytica; conditions: Entamoeba histolytica
Protocol: (§1) Compounds were screened for antiparasitic activity using an ATP-bioluminescence based assay for cell growth and survival, [24]. […] Viable cell numbers were determined in triplicate using the CellTiter-Glo Luminescent Cell Viability Assay.

G. lamblia WB (MtzS) = assay: ATP-bioluminescence growth/survival EC50 assay, G. lamblia WB; conditions: for EC50: Giardia duodenalis; for S.I (CC50/EC50): average cytotoxicity against HEK293 and HepG2 / G. lamblia WB activity
Protocol: as §1

T. vaginalis F1623 = assay: ATP-bioluminescence growth/survival EC50 assay, T. vaginalis; type: cell-based, Trichomonas vaginalis
Protocol: as §1

[1] = Resazurin cytotoxicity assay, HepG2; type: cell-based, Human; conditions: human, 24 h, highest concentration 100 μM, n = 3, read-out: CC50 Hep G2
Protocol: (§2) Human HEK293 and HepG2 cells were seeded at 3000 and 5000 cells per well in 384-well plates, respectively. Cells were cultured in Dulbecco's modified Eagle's medium with 10% FBS for 24 h at 37 °C, 5% CO2. A dilution series of compounds was added, with the highest concentration of 100 μM. […] After 24 h incubation with the compounds, 5 μM resazurin was added into each well and incubated at 37 °C for 2 h. As a negative control, 1% Triton X-100 was added into the culture media to lyse all of the cells. The fluorescence intensity was read using Polarstar Omega with excitation/emission 560/590 nm. Data were analysed with GraphPad Prism 6 software (La Jolla, California USA) to calculate CC50 values.

[2] = system: C. difficile NAP1/027 (ATCC BAA-1803); assay: Broth microdilution MIC assay, C. difficile NAP1/027; type: cell-based, Clostridium difficile; conditions: Clostridioides difficile, ATCCBAA1803; strain NAP1/027
Protocol: Clostridium difficile strains (630, ATCC BAA-1382 and NAP1/027, ATCC BAA-1803) were maintained as previously described. The minimum inhibition concentration (MIC) was determined according to the CLSI Methods with modifications in broth and inoculum for C. difficile, [25], [26]. Briefly, compounds and control antibiotics were serially diluted two-fold in 96-well plates (Non-binding surface, Corning). The plates were placed in a Coy anaerobic chamber (5% H2, 10% CO2, 85% N2) overnight to reduce the medium. C. difficile bacteria from BHIS(TA) agar plates were cultured anaerobically in BHIS at 37 °C overnight. […]. Compound concentration ranged from 64 to 0.03 μg/mL. An antibiotic standard, a positive growth control (no compound) and a sterility control (no bacteria) were included on each 96 well plate. Plates were covered and incubated at 37 °C for 24 h. MICs for each strain were determined as the lowest concentration without visible growth. Variance between replicates was typically within one 2-fold dilution. Median MICs are reported with a range given when the median MIC was between two tested concentrations.

G. lamblia 713M3 (MtzR) = assay: ATP-bioluminescence growth/survival EC50 assay, G. lamblia 713M3; type: cell-based, Giardia lamblia; conditions: Giardia duodenalis
Protocol: as §1

[3] = system: C. difficile 630 (ATCC BAA-1382); assay: Broth microdilution MIC assay, C. difficile 630; type: cell-based, Clostridium difficile; conditions: Clostridioides difficile, ATCCBAA1382
Protocol: Clostridium difficile strains (630, ATCC BAA-1382 and NAP1/027, ATCC BAA-1803) were maintained as previously described. The minimum inhibition concentration (MIC) was determined according to the CLSI Methods with modifications in broth and inoculum for C. difficile, [25], [26]. Briefly, compounds and control antibiotics were serially diluted two-fold in 96-well plates (Non-binding surface, Corning). […] C. difficile bacteria from BHIS(TA) agar plates were cultured anaerobically in BHIS at 37 °C overnight. […] An antibiotic standard, a positive growth control (no compound) and a sterility control (no bacteria) were included on each 96 well plate. Plates were covered and incubated at 37 °C for 24 h. MICs for each strain were determined as the lowest concentration without visible growth. […] Median MICs are reported with a range given when the median MIC was between two tested concentrations.

[4] = Resazurin cytotoxicity assay, HEK293; type: cell-based, Human; conditions: human, 24 h, highest concentration 100 μM, n = 3, read-out: CC50 HEK 293
Protocol: as §2

[5] = read-out: EC50 E. histolytica HM1:IMSS
[6] = read-out: pEC50 ± SE E. histolytica HM1:IMSS (converted)
[7] = read-out: EC50 G. lamblia WB, MtzS strain WB, minimum n = 3
[8] = read-out: pEC50 ± SE G. lamblia WB, MtzS strain WB (converted)
[9] = Trichomonas vaginalis, read-out: EC50 T. vaginalis F1623, MtzS, minimum n = 3
[10] = Trichomonas vaginalis, read-out: pEC50 ± SE T. vaginalis F1623, MtzS (converted)
[11] = read-out: EC50 G. lamblia 713M3, MtzR strain 713M3, minimum n = 3
[12] = read-out: pEC50 ± SE G. lamblia 713M3, MtzR strain 713M3 (converted)
[13] = strain 630, MtzS, median of n = 4, read-out: MIC C. difficile 630
[14] = 630 and NAP1/027 strains together or strain not given, read-out: MIC C. difficile

Compound | EC50 (E. histolytica HM1:IMSS; [5]) [µM] | EC50 (E. histolytica HM1:IMSS; [6]) [µM] | EC50 (G. lamblia WB (MtzS); [7]) [µM] | EC50 (G. lamblia WB (MtzS); [8]) [µM] | S.I (CC50/EC50) (G. lamblia WB (MtzS)) | EC50 (T. vaginalis F1623; [9]) [µM] | EC50 (T. vaginalis F1623; [10]) [µM] | EC50 (T. vaginalis F1623; read-out: EC50 T. vaginalis F1623, MtzS, minimum n = 3) [µM] | CC50 at 24 h ([1]; HepG2 cells) [µM] | MIC [2] [µg/mL] | EC50 (G. lamblia 713M3 (MtzR); [11]) [µM] | EC50 (G. lamblia 713M3 (MtzR); [12]) [µM] | MIC [3, 13] [µg/mL] | CC50 at 24 h ([4]; HEK293 cells) [µM] | MIC [3, 14] [µg/mL] | CC50 at 24 h [1] [µM] | CC50 at 24 h [4] [µM]
O=C(c1ncc([N+](=O)[O-])[nH]1)N1CCCC1 [Compound 12i, (5-nitro-1H-imidazol-2-yl)(pyrrolidin-1-yl)methanone] | 4.3 | 4.27 | 3.4 | 3.39 | >29 | 1.2 to 2.3 | 1.7 | 1.7 | > 100 | 2 (≈ 9.52 µM) | 13 | 13.2 | 2 (≈ 9.52 µM) | > 100 | – | – | –
O=C(NC1CC1)c1ncc([N+](=O)[O-])[nH]1 [Compound 12j, N-cyclopropyl-5-nitro-1H-imidazole-2-carboxamide] | 5.3 | 5.25 | 5 | 5.01 | >20 | 4.4 | 4.37 | – | > 100 | 1 (≈ 5.1 µM) | > 20 | > 20 | 1 (≈ 5.1 µM) | > 100 | 1 (≈ 5.1 µM) | – | –
NC(=O)c1ncc([N+](=O)[O-])[nH]1 [Compound 12l, 5-nitro-1H-imidazole-2-carboxamide] | 13 | 13.2 | > 50 | > 50.1 | – | > 20 | > 20 | – | – | 1 to 2 (≈ 6.41 to 12.8 µM) | > 20 | > 20 | 1 (≈ 6.41 µM) | – | – | > 100 | > 100
CNC(=O)c1ncc([N+](=O)[O-])[nH]1 [Compound 12m, N-methyl-5-nitro-1H-imidazole-2-carboxamide] | 6.1 | 6.17 | 9.9 | 10 | >10 | 8.5 | 8.51 | – | > 100 | 1 (≈ 5.88 µM) | > 20 | > 20 | 0.5 to 1 (≈ 2.94 to 5.88 µM) | > 100 | – | – | –
O=C(NCCO)c1ncc([N+](=O)[O-])[nH]1 [Compound 12n, N-(2-hydroxyethyl)-5-nitro-1H-imidazole-2-carboxamide] | > 50 | > 50.1 | > 50 | > 50.1 | – | > 20 | > 20 | – | > 100 | 8 to 16 (≈ 40 to 79.9 µM) | > 20 | > 20 | 8 (≈ 40 µM) | > 100 | 8 to 16 (≈ 40 to 79.9 µM) | – | –
CN(CCO)C(=O)c1ncc([N+](=O)[O-])[nH]1 [Compound 12o, N-(2-hydroxyethyl)-N-methyl-5-nitro-1H-imidazole-2-carboxamide] | > 50 | > 50.1 | 24 | 24 | >4 | > 20 | > 20 | – | > 100 | 4 (≈ 18.7 µM) | > 20 | > 20 | 2 (≈ 9.34 µM) | > 100 | 0.5 to 2 (≈ 2.33 to 9.34 µM) | – | –
